Source: patent publication US10730851B2, “Polymorph of triaryldimethylpiperazine dihydrochloride and preparation method and application thereof” (priority 2016, dated 2020)
≈ marks a conversion by molar mass, not a printed value.

Tests used:
SPF-grade SD rats = assay: Forced swimming test; format: in vivo; conditions: 40 mg/kg Ip, three times (23.5 h, 5 h, 1 h before test), x ± SEM
Procedure: Forced swimming test is used to test the antidepressant effects of polymorph forms P, F, O, B and J.
the swimming test equipment is a transparent glass round cylinder with a height of 46 cm and an inner diameter of 20 cm, the test water temperature is 23° C.˜25° C., the test water depth is 30 cm, and each cylinder is used only once.
(§1) 300 mg of a polymorph form P is weighed with an electronic balance, and the polymorph form P is dissolved with 0.9% normal saline, and finally the volume is fixed to 100 mL with 0.9% normal saline, at this time, the concentration of dihydrochloride in the experimental reagent is 3 mg/mL for later use.
as §1, with “600” for “300”, “6” for “3”
400 mg of desipramine (DMI) is weighed with an electronic balance, DMI is dissolved with 0.9% normal saline, and then the volume is fixed to 100 mL with 0.9% normal saline for later use.
Forty SPF-grade SD rats are prepared and randomly divided into 4 groups, namely vehicle control group, positive control group, experimental group 1 and experimental group 2, with 10 rats in each group. The day before the test, the rats were placed in water for 15 min to pre-swim for 15 min in advance to adapt to the swimming test environment, then taken out and dried, placed in the cage under an infrared lamp for 15 min and then placed in the original cage. After 24 h, a formal swimming test is conducted, that is, the rats are put into water again after 24 h, and the rats are continuously observed for 5 min. The swimming process are needed to be photographed. The drug is administered during two swimming sessions.
The positive control group containing DMI is administered three times, at 23.5 h, 5 h and 1 h before the formal swimming test respectively. Vehicle control group, experimental group 1 and experimental group 2 are each administered only once and subcutaneously within 1 h.
The behaviors of the rats are scored by the scorer every 5 seconds after recording the experiment.
1) Static—when the rat floats on the water surface without struggling and moves only to keep its head above the water surface, the rat is evaluated as static;
2) Swimming—if the rats have obvious swimming behaviors, not only to keep their heads above the water surface, or to travel around in a round cylinder, they are evaluated as swimming;
3) Wall climbing—the rats' front paws have obvious behavior of entering and leaving the water surface, usually, rats are evaluated as wall climbing in front of the round cylinder wall.
All behavioral are scored by a single person. To avoid bias of observation, the scorer only observed and scored without knowing the administration situations. Then multiple test fragments are randomly selected, and the scorer will score the second round to determine the accuracy of observation. The test video is scored again by the second scorer to determine the accuracy between scorers. The second scorer are also required to observe without knowing the drug administration. Finally, in order to determine the effectiveness of the method, the first scorer scored again and recorded the duration of various behaviors with a stopwatch.
SPSSwin11.0 software is used for variance analysis. One-way variance analysis is used for homogeneity of variance, and Dunnett test is used for heterogeneity of variance.

[1] = Relative bioavailability test; format: in vivo, SPF-grade SD rats; conditions: rats, 20 mg/kg·bw by gavage in 0.5% CMC-Na, x ± s, n = 6, 20 mg/kg
Procedure: HPLC-MS/MS method is used to detect the blood drug concentration of target drugs in SPF-grade SD rats, and the relative bioavailability of 0.5% CMC-Na suspension of a free base and 0.5% CMC-Na solution of a polymorph form P are calculated and compared.
60.46 mg of a free base is accurately weighed and placed into a 15 mL centrifuge tube, 12 mL of 0.5% CMC-Na solution is measured and added into the centrifuge tube with a measuring cylinder, vortexed for 5 min, and ultrasonically dispersed for 15 min to obtain 0.5% CMC-Na suspension of free base with a concentration of 5.04 mg/ml, which is currently formulated when using and vibrated at any time during administration.
60.05 mg of a polymorph form P is accurately weighed and placed into a 15 mL centrifuge tube, 12 mL of 0.5% CMC-Na solution is measured and added into the centrifuge tube with a measuring cylinder, vortexed for 5 min, and ultrasonically dispersed for 15 min to obtain 0.5% CMC-Na solution of 5.00 mg/mL polymorph form P, which is currently formulated when using.
Twelve SPF-grade SD rats are selected and randomly divided into a free base group and a polymorph form P group with 6 rats in each group (both male and female). Animals are fasted for 12 h but have free access to water. Weighing is performed and, the administration volume of each rat is calculated according to the animal weight, so that the administration dose is 20 mg/kg·bw. During administration, the drugs are each administrated by gavage, and 0.5% CMC-Na suspension/solution of the above two target drugs are extracted by 2 mL syringe respectively. The gavage needle is inserted into the stomach from the corner of the rat's mouth and pushed the solution thereto.
Blood is collected from the fundus venous plexus of rats at 0.2 mL before (0 h) and 0.5, 1, 2, 4, 6, 8, 12 and 24 h after administration, anticoagulated with 300 IU/mL heparin (1:20) and centrifuged (3000 r/min) for 15 min. After plasma separation, the blood drug concentration of the target drug is determined by HPLC-MS/MS.
Referring to the above-mentioned bioavailability test of the polymorph form P, the bioavailability tests of polymorph forms F, O, B and J are conducted respectively. Different from the bioavailability test of the polymorph form P, rats are given 0.5% CMC-Na solution of the polymorph form F, O, B or J by gavage respectively. Other operations are the same as the above bioavailability test.

[2] = Dynamic solubility test in water, SGF, FeSSIF, FaSSIF; format: physicochemical
Procedure: The dynamic solubility of a free base, polymorph forms B, P, F, J and O in water or a biological medium such as Stimulated Gastric Fluid (SGF), Fed State Simulated Intestinal Fluid (FeSSIF) or Fasted State Simulated Intestinal Fluid (FaSSIF) is determined.
0.2 g sodium chloride and 0.1 g Triton X-100 is weighed and placed into a 100 mL volumetric flask. Purified water is added to dissolve. A stir is performed until the solid is completely dissolved. About 135 μL concentrated hydrochloric acid solution (37%, […]) is added, then the pH is adjusted to 1.8 with […] hydrochloric acid or 1 mmoL/L sodium hydroxide. Finally, the volume is fixed with purified water to obtain Stimulated Gastric Fluid (SGF) for later use.
Each of 0.41 mL glacial acetic acid, 0.20 g sodium hydroxide and 0.59 g sodium chloride is weighed and placed to a 50 mL volumetric flask. About 48 mL purified water is added to dissolve, the pH is adjusted to 5.0 with 1 mmoL/L hydrochloric acid or 1 mmoL/L sodium hydroxide, and the volume is fixed with purified water. Then 0.56 g of Simulated Intestinal Fluid powder (SIF powder for short, which is composed of […] with a molar ratio of 4:1) is added, stirred and ultrasonically dissolved to obtain Fed State Simulated Intestinal Fluid (FeSSIF) for later use.
Each of 0.17 g of anhydrous sodium dihydrogen phosphate (NaH2PO4), 0.021 g of sodium hydroxide and 0.31 g of sodium chloride is weighed and placed into a 50 mL volumetric flask. About 48 mL of purified water is added to dissolve, the pH is adjusted to 6.5 with 1 mmoL/L hydrochloric acid or 1 mmoL/L sodium hydroxide, and the volume is fixed with purified water. 0.11 g of SIF powder is added, stirred and ultrasonically dissolved to obtain Fasted State Simulated Intestinal Fluid (FaSSIF) for later use.
Each 30 mg of the free base, and polymorph forms B, P, F, J and O are weighed. 3 mL of purified water, Stimulated Gastric Fluid (SGF), Fed State Simulated Intestinal Fluid (FeSSIF) or Fasted State Simulated Intestinal Fluid (FaSSIF)) is added and oscillated at room temperature. 0.6 mL of suspension is taken each time at a set time point, filtered and separated with a 0.45 μm nylon filter membrane, then XRPD characterization is performed on the solid sample, and the concentration in the clear solution is measured by HPLC.

Compound: CNCCCN1c2ccccc2CCc2ccccc21 [desipramine, reference compound]
- Behavior duration, Static (SPF-grade SD rats): 37.5 ± 6.5 s
- Behavior duration, Swimming (SPF-grade SD rats): 143.0 ± 15.5 s
- Behavior duration, Wall climbing (SPF-grade SD rats): 119.5 ± 12.0 s
- Number of behaviors, Swimming (SPF-grade SD rats): 28.6 ± 3.1 times
- Number of behaviors, Wall climbing (SPF-grade SD rats): 23.9 ± 2.4 times
- Number of behaviors, Static (SPF-grade SD rats; 5 min observation): 7.5 ± 1.3 times

Compound: CC1CCN(C(=O)c2ccc([C@H](c3cccc(O)c3)N3C[C@@H](C)N(Cc4cccc(F)c4)C[C@@H]3C)cc2)CC1 [free base]
- AUC(0-24h) [1]: 0.2886 µg·h/mL
- AUC(0-24h) ([1]; listed as Free base): 0.2886 ± 0.0647 µg·h/mL
- Cmax ([1]; listed as Free base): 0.05168 ± 0.00656 µg/mL
- Tmax ([1]; listed as Free base): 3.6 ± 0.9 h
- t1/2z ([1]; listed as Free base): 2.4 ± 0.8 h
- pH in clear solution ([2]; FaSSIF, Time 1): 6.5
- Crystal form of insoluble solid sample ([2]; FaSSIF, Time 1, XRPD): invariability
- Solubility ([2]; FaSSIF, Time 1, room temperature): 0.013 mg/mL (≈ 24.5 µM)
- pH in clear solution ([2]; FaSSIF, Time 2): 6.5
- Crystal form of insoluble solid sample ([2]; FaSSIF, Time 2, XRPD): invariability
- Solubility ([2]; FaSSIF, Time 2, room temperature): 0.017 mg/mL (≈ 32.1 µM)
- pH in clear solution ([2]; FaSSIF, Time 4): 6.5
- Crystal form of insoluble solid sample ([2]; FaSSIF, Time 4, XRPD): invariability
- Solubility ([2]; FaSSIF, Time 4, room temperature): 0.016 mg/mL (≈ 30.2 µM)
- pH in clear solution ([2]; FaSSIF, Time 24): 6.5
- Crystal form of insoluble solid sample ([2]; FaSSIF, Time 24, XRPD): invariability
- Solubility ([2]; FaSSIF, Time 24, room temperature): 0.027 mg/mL (≈ 51 µM)
- pH in clear solution ([2]; FeSSIF, Time 1): 4.9
- Crystal form of insoluble solid sample ([2]; FeSSIF, Time 1, XRPD): invariability
- Solubility ([2]; FeSSIF, Time 1, room temperature): 0.059 mg/mL (≈ 111 µM)
- pH in clear solution ([2]; FeSSIF, Time 2): 5.0
- Crystal form of insoluble solid sample ([2]; FeSSIF, Time 2, XRPD): invariability
- Solubility ([2]; FeSSIF, Time 2, room temperature): 0.063 mg/mL (≈ 119 µM)
- pH in clear solution ([2]; FeSSIF, Time 4): 5.0
- Crystal form of insoluble solid sample ([2]; FeSSIF, Time 4, XRPD): invariability
- Solubility ([2]; FeSSIF, Time 4, room temperature): 0.062 mg/mL (≈ 117 µM)
- pH in clear solution ([2]; FeSSIF, Time 24): 5.0
- Crystal form of insoluble solid sample ([2]; FeSSIF, Time 24, XRPD): invariability
- Solubility ([2]; FeSSIF, Time 24, room temperature): 0.081 mg/mL (≈ 153 µM)
- pH in clear solution ([2]; SGF, Time 1): 1.9
- Crystal form of insoluble solid sample ([2]; SGF, Time 1, XRPD): invariability
- Solubility ([2]; SGF, Time 1, room temperature): 2.1 mg/mL (≈ 3960 µM)
- pH in clear solution ([2]; SGF, Time 2): 1.9
- Crystal form of insoluble solid sample ([2]; SGF, Time 2, XRPD): invariability
- Solubility ([2]; SGF, Time 2, room temperature): 2.7 mg/mL (≈ 5100 µM)
- pH in clear solution ([2]; SGF, Time 4): 1.9
- Crystal form of insoluble solid sample ([2]; SGF, Time 4, XRPD): invariability
- Solubility ([2]; SGF, Time 4, room temperature): 2.7 mg/mL (≈ 5100 µM)
- pH in clear solution ([2]; SGF, Time 24): 2.1
- Crystal form of insoluble solid sample ([2]; SGF, Time 24, XRPD): invariability
- Solubility ([2]; SGF, Time 24, room temperature): 3.2 mg/mL (≈ 6040 µM)
- pH in clear solution ([2]; Water, Time 1): 5.6
- pH in clear solution ([2]; Water, Time 2): 5.7
- Crystal form of insoluble solid sample ([2]; Water, Time 2, XRPD): invariability
- Solubility ([2]; Water, Time 2, room temperature): <LOQ
- pH in clear solution ([2]; Water, Time 4): 5.6
- Crystal form of insoluble solid sample ([2]; Water, Time 4, XRPD): invariability
- Solubility ([2]; Water, Time 4, room temperature): <LOQ
- pH in clear solution ([2]; Water, Time 24): 5.8
- Crystal form of insoluble solid sample ([2]; Water, Time 24, XRPD): invariability
- Solubility ([2]; Water, Time 24, room temperature): <LOQ
